Structures can show the parent of a compound that is named as a salt. Where two headings read alike, the source gives them in different places.
Columns and labels:
HCT-116 cell line = assay: Inhibition of cell growth, tetrazolium salt (MTT) assay; assay type: cell-based; conditions: for IC50: Homo sapiens, HCT-116, 120 h, MTT, three to five days, read-out: HCT-116 IC50; for HCT-116 % Inhibition at 0.25 μM: 0.25 μM compound
Outline: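 Cells in McCoy's 5A medium were left 4 h, then given graded compound concentrations in 0.5% (v/v) DMSO and incubated three to five days at 37° C (5% CO2). MTT was added to 0.2 mg/mL for 4 h more; DMSO-solubilized formazan was read at 540 nm against 0.5% DMSO-only controls.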

CDK2/Cyclin A = CDK2/Cyclin A (Homo sapiens, UniProt P24941); assay: Inhibition of CDK2/Cyclin A Retinoblastoma Kinase Activity; assay type: biochemical; conditions: for Ki: apparent Ki, CDK2/proteolyzed cyclin A, Rb fragment substrate, 25 μM ATP; for CDK2 % Inhibition At 0.03 μM: Table 2
Outline: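 Human CDK2, baculovirus/insect-cell expressed, complexed with proteolyzed cyclin A (10 nM or 19 nM CDK2) phosphorylates an Rb fragment with 25 μM [32P/33P]ATP at pH 7.4, 30° C, for 60 or 75 minutes under initial-rate conditions. Filter-captured radioactivity is read by phosphorimager; apparent Ki from competitive-inhibition fits.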

[1] = biological target: human CDK4 and genetically truncated (1-264) cyclin D3 (Homo sapiens, UniProt P11802); assay: Inhibition of CDK4/Cyclin D Retinoblastoma Kinase Activity; assay type: biochemical; conditions: for Ki: apparent Ki, CDK4/truncated cyclin D3, Rb fragment substrate, 25 μM ATP
human CDK4 and genetically truncated (1-264) cyclin D3, sequence (P11802 whole entry, the tested form may be a part): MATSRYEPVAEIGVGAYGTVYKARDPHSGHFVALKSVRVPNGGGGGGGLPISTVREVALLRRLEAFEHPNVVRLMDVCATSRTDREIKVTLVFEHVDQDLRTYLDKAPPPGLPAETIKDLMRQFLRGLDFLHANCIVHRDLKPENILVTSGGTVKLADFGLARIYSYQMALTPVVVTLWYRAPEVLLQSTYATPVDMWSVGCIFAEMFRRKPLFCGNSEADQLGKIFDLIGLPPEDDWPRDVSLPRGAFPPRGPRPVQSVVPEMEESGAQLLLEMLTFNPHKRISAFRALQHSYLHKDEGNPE
human CDK4 and genetically truncated (1-264) cyclin D3, sequence (P30281 1-264 partner): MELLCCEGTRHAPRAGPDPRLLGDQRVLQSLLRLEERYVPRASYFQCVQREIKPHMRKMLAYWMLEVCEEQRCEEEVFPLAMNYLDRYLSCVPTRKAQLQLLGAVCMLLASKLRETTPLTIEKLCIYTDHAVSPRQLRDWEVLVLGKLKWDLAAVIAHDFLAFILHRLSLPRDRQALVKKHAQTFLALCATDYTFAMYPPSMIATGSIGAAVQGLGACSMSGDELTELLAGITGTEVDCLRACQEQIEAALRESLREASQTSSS
Outline: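 Read-out: 32P/33P incorporation into Rb fragment (386-928) captured on nitrocellulose, phosphorimager. Enzyme 5 nM CDK4/cyclin D3(1-264) from insect cells; ATP 25 μM, pH 7.4, 30 °C, 20 min (60 min for tight binders). Ki from competitive fits.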

## Cc1ccc(C(=O)N2CCC(Nc3nc(N)c(C(=O)c4c(F)cccc4F)s3)CC2)cc1C [Example D15, {4-Amino-2-[1-(3,4-dimethyl-benzoyl)-piperidin-4-ylamino]-thiazol-5-yl}-(2,6-difluoro-phenyl)-methanone]
HCT-116 cell line; first HCT-116 column (c4)
  IC50: 50 nM
HCT-116 cell line; second HCT-116 column (c5)
  IC50: 170 nM
CDK2/Cyclin A
  Ki: 170 nM
[1]
  Ki: 27 nM

## CCOC(=O)C(C)NC(=O)N1CCC(Nc2nc(N)c(C(=O)c3c(F)cccc3F)s2)CC1 (stereo not drawn) [Example O72]
HCT-116 cell line; HCT-116, Table 2
  HCT-116 % Inhibition at 0.25 μM: 62%
CDK2/Cyclin A; 0.03 μM compound
  CDK2 % Inhibition At 0.03 μM: 24%
[1]; 0.03 μM compound, Table 2
  CDK4 % Inhibition at 0.03 μM: 11%

## CN(C)CCOc1ccc(S(=O)(=O)N2CCC(Nc3nc(N)c(C(=O)c4c(F)cccc4F)s3)CC2)cn1 [Example H3, 1-(4-Amino-2-{1-[6-(2-dimethylamino-ethoxy)-pyridine-3-sulfonyl]-piperidin-4-ylamino}-thiazol-5-yl)-1-(2,6-difluoro-phenyl)-methanone Hydrochloride]
HCT-116 cell line; first HCT-116 column (c4)
  IC50: 51 nM
HCT-116 cell line; second HCT-116 column (c5)
  IC50: 320 nM
CDK2/Cyclin A
  Ki: 1.8 nM
[1]
  Ki: 0.67 nM

## Nc1nc(NC2CCN(C(=O)CC3CCCC3)CC2)sc1C(=O)c1c(F)cccc1F [Example R78]
HCT-116 cell line; HCT-116 cells, at 0.1 μM
  HCT-116 % Inhibition at 0.1 μM: 0%
HCT-116 cell line; HCT-116 cells
  HCT-116 5 Inhibition at 0.25 μM: 47
CDK2/Cyclin A; at 0.03 μM
  CDK2 % Inhibition at 0.03 μM: 20%
[1]; at 0.03 μM
  CDK4 % Inhibition at 0.03 μM: 19%

## CC(C)NC(=O)N1CCC(Nc2nc(N)c(C(=O)c3c(F)cccc3F)s2)CC1 [Example O29]
HCT-116 cell line; HCT-116, Table 2
  HCT-116 % Inhibition at 0.25 μM: 33%
CDK2/Cyclin A; 0.03 μM compound
  CDK2 % Inhibition At 0.03 μM: 30%
[1]; 0.03 μM compound, Table 2
  CDK4 % Inhibition at 0.03 μM: 10%

## CN1CCC(Oc2ccc(S(=O)(=O)N3CCC(Nc4nc(N)c(C(=O)c5c(F)cccc5F)s4)CC3)cn2)CC1 [Example H14, 1-(4-Amino-2-{1-[6-(1-methyl-piperidin-4-yloxy)-pyridine-3-sulfonyl]-piperidin-4-ylamino}-thiazol-5-yl)-1-(2,6-difluoro-phenyl)-methanone Hydrochloride]
HCT-116 cell line; first HCT-116 column (c4)
  IC50: 40 nM
HCT-116 cell line; second HCT-116 column (c5)
  IC50: 400 nM
CDK2/Cyclin A
  Ki: 0.74 nM
[1]
  Ki: 0.34 nM

## Nc1nc(NC2CCN(C(=O)c3cccnc3Cl)CC2)sc1C(=O)c1c(F)cccc1F [Example R18]
HCT-116 cell line; HCT-116 cells, at 0.1 μM
  HCT-116 % Inhibition at 0.1 μM: 0%
HCT-116 cell line; HCT-116 cells
  HCT-116 5 Inhibition at 0.25 μM: 45
CDK2/Cyclin A; at 0.03 μM
  CDK2 % Inhibition at 0.03 μM: 25%
[1]; at 0.03 μM
  CDK4 % Inhibition at 0.03 μM: 46%

## Nc1nc(NC2CCN(C(=O)c3ccccc3F)CC2)sc1C(=O)c1c(F)cccc1F [Example Q11]
HCT-116 cell line; 0.1 μM compound, HCT-116, Table 4
  HCT-116 % Inhibition at 0.1 μM: 7%
HCT-116 cell line; HCT-116, Table 4
  HCT-116 % Inhibition at 0.25 μM: 43%
CDK2/Cyclin A; 0.03 μM compound, Table 4
  CDK2 % Inhibition at 0.03 μM: 30%
[1]; 0.03 μM compound, Table 4
  CDK4 % Inhibition at 0.03 μM: 57%

## COC(=O)[C@H](COC(C)(C)C)NC(=O)N1CCC(Nc2nc(N)c(C(=O)c3c(F)cccc3F)s2)CC1 [Example O79]
HCT-116 cell line; HCT-116, Table 2
  HCT-116 % Inhibition at 0.25 μM: 49%
CDK2/Cyclin A; 0.03 μM compound
  CDK2 % Inhibition At 0.03 μM: 32%
[1]; 0.03 μM compound, Table 2
  CDK4 % Inhibition at 0.03 μM: 8%

## Nc1nc(NC2CCN(S(=O)(=O)c3ccccc3)CC2)sc1C(=O)c1c(F)cccc1F [Example P8]
HCT-116 cell line; 0.1 μM compound, HCT-116, Table 3
  HCT-116 % Inhibition at 0.1 μM: 37%
HCT-116 cell line; HCT-116, Table 3
  HCT-116 % Inhibition at 0.25 μM: 33%
CDK2/Cyclin A; 0.03 μM compound, Table 3
  CDK2 % Inhibition at 0.03 μM: 73%
[1]; 0.03 μM compound, Table 3
  CDK4 % Inhibition at 0.03 μM: 72%

## Nc1nc(NC2CCN(C(=O)Nc3ccc([N+](=O)[O-])cc3)CC2)sc1C(=O)c1c(F)cccc1F [Example O36]
HCT-116 cell line; HCT-116, Table 2
  HCT-116 % Inhibition at 0.25 μM: 28%
CDK2/Cyclin A; 0.03 μM compound
  CDK2 % Inhibition At 0.03 μM: 23%
[1]; 0.03 μM compound, Table 2
  CDK4 % Inhibition at 0.03 μM: 12%

## Nc1nc(NC2CCN(C(=O)Nc3ccc4ccccc4c3)CC2)sc1C(=O)c1c(F)cccc1F [Example O54]
HCT-116 cell line; HCT-116, Table 2
  HCT-116 % Inhibition at 0.25 μM: 46%
CDK2/Cyclin A; 0.03 μM compound
  CDK2 % Inhibition At 0.03 μM: 34%
[1]; 0.03 μM compound, Table 2
  CDK4 % Inhibition at 0.03 μM: 15%

## Nc1nc(NC2CCN(C(=O)c3ccc(F)cc3C(F)(F)F)CC2)sc1C(=O)c1c(F)cccc1F [Example R36]
HCT-116 cell line; HCT-116 cells, at 0.1 μM
  HCT-116 % Inhibition at 0.1 μM: 0%
HCT-116 cell line; HCT-116 cells
  HCT-116 5 Inhibition at 0.25 μM: 51
CDK2/Cyclin A; at 0.03 μM
  CDK2 % Inhibition at 0.03 μM: 21%
[1]; at 0.03 μM
  CDK4 % Inhibition at 0.03 μM: 17%

## Nc1nc(NC2CN(C(c3ccccc3)c3ccccc3)C2)sc1C(=O)c1c(F)cccc1F [Example A14, [4-Amino-2-(1-benzhydryl-azetidin-3-ylamino)-thiazol-5-yl]-(2,6-difluoro-phenyl)-methanone]
HCT-116 cell line; first HCT-116 column (c4)
  IC50: > 5000 nM
HCT-116 cell line; second HCT-116 column (c5)
  IC50: > 5000 nM
CDK2/Cyclin A
  Ki: > 2000 nM
[1]
  Ki: > 2000 nM
